This note sets out measurements from ChEMBL document CHEMBL1201862, “PubChem BioAssay data set” (2004).

In test [1] the target is Testis-specific serine/threonine-protein kinase 2 (Homo sapiens, UniProt Q96PF2). The class given is functional.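 Note: part of the Navigating the Kinome panel, target entry STK22B.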
Test [2] concerns the target Tyrosine-protein kinase ITK/TSK (Homo sapiens, UniProt Q08881). The class given is functional.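 Note: affinity for ITK measured as one member of a broad kinase panel profiling binding across the kinome.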
The target in test [3] is Mitogen-activated protein kinase kinase kinase 20 (Homo sapiens, UniProt Q9NYL2). The class given is functional.
Sequence of Mitogen-activated protein kinase kinase kinase 20 (Q9NYL2 whole entry): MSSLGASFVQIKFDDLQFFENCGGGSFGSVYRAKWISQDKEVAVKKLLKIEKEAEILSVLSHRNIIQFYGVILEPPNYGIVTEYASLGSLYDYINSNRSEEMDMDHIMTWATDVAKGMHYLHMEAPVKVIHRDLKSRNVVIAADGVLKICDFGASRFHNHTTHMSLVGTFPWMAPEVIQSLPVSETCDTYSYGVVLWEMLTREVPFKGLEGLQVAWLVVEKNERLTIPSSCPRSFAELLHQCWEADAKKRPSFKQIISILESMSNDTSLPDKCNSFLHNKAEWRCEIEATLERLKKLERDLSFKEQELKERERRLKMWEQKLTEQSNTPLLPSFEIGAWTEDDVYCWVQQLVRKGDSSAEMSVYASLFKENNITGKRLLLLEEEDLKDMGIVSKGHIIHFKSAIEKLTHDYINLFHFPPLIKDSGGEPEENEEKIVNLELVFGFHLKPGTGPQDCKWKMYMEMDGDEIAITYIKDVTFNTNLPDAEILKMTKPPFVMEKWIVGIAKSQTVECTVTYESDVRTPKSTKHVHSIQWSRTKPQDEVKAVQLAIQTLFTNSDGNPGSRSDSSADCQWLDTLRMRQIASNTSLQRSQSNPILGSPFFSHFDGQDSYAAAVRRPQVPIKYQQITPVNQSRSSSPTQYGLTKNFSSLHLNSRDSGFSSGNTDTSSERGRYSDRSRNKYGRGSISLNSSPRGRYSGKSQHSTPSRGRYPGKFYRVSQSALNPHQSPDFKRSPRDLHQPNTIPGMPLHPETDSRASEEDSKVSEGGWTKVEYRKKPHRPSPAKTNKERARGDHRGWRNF
Test [4] addresses Receptor tyrosine-protein kinase erbB-2 (Homo sapiens, UniProt P04626). The test can be described thus: Navigating the Kinome. Panel member name: ERBB2. The class given is functional.
For test [5], the target named is G protein-coupled receptor kinase 5 (Homo sapiens, UniProt P34947). The test can be described thus: Navigating the Kinome. Panel member name: GPRK5. The class given is functional.
Sequence of G protein-coupled receptor kinase 5 (P34947 whole entry): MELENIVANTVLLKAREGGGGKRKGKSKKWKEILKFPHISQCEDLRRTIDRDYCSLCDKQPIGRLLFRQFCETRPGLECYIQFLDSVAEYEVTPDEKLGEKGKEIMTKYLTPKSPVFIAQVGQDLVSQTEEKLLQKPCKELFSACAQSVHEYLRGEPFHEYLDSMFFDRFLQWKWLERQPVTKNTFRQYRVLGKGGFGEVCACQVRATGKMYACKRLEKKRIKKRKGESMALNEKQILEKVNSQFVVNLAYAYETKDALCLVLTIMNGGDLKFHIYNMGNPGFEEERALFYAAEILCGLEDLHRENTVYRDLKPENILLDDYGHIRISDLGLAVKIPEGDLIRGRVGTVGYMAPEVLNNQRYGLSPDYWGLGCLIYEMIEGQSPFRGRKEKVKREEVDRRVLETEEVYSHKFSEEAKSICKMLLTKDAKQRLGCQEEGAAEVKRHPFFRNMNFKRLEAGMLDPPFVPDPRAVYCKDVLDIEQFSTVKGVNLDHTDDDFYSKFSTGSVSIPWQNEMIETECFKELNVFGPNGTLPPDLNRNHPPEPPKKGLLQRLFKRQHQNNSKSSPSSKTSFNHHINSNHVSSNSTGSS
Test [6] concerns the target T1, Interleukin-1 receptor-associated kinase 4 (Homo sapiens, UniProt Q9NWZ3).
T1 sequence (Q9NWZ3 whole entry): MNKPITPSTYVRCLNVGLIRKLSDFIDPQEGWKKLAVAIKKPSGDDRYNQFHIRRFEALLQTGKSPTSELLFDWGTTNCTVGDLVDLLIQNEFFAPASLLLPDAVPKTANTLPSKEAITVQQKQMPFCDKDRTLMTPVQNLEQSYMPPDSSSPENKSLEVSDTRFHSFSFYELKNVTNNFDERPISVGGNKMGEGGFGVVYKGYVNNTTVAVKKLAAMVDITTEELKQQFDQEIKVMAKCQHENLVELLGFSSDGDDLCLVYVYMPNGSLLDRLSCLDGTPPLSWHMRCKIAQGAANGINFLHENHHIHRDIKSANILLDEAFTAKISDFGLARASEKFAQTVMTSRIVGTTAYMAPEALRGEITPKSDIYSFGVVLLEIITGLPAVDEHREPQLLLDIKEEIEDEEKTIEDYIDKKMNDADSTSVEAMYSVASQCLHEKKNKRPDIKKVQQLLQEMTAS
The class given is functional.

Test [7] in a line: NIH-3T3 fibroblast cytotoxicity, dose response, cytotoxicity control, cell-based, fluorescence, Alamar Blue, secondary assay (AID 2327).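 Note: NIH-3T3 mouse fibroblasts cultured with fluconazole at 8 µg/mL.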 The class given is functional. A general note: Resazurin is reduced to fluorescent resorufin, in cell work by metabolically active cells.
A further test is described as follows: cells. The class given is functional, cell-based.
The next test deals with Streptococcus. The test can be described thus: Group A Streptococcus viability loss, dose response, counter-screen for streptokinase expression inhibitor project, luminescence, BacTiterGlo (AID 1915).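 Note: potency for reduction of bacterial viability or growth.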 The format is functional, organism-based. For orientation: A counterscreen serves to expose hits that act by an unwanted route or on another target.
The target in test [8] is ATP-dependent molecular chaperone HSP82 (Candida albicans (strain WO-1) (Yeast), UniProt C4YTQ8). The test can be described thus: loss of DOC-induced GRE-beta-galactosidase reporter signal, dose response, Hsp90 inhibitor project, S. cerevisiae, luminescence (AID 2400).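 Note: beta-galactosidase luminescence from glucocorticoid response element reporter as proxy for Hsp90 function; inhibitor potency where signal loss means Hsp90 inhibition.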 The class given is functional, cell-based.
Sequence of ATP-dependent molecular chaperone HSP82 (C4YTQ8 whole entry): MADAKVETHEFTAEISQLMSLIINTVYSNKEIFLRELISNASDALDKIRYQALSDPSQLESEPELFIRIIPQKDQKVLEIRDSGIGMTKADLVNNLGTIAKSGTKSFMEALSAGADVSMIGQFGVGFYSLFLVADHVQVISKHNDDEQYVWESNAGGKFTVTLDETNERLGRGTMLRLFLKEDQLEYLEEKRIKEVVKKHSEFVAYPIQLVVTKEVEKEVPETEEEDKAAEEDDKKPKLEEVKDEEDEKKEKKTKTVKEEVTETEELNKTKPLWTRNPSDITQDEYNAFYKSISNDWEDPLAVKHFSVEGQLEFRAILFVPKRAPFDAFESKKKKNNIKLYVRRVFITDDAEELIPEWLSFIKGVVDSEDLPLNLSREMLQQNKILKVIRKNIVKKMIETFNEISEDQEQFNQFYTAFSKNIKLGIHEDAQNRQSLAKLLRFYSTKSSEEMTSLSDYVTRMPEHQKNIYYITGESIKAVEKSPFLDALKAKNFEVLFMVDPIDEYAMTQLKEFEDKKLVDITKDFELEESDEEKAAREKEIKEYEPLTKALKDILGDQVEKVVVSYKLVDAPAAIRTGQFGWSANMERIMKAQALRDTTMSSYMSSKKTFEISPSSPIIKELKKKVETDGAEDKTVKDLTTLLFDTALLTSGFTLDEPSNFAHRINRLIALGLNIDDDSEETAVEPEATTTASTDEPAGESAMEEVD
A short description of test [9]: HepG2 cell cytotoxicity, dose response, cytotoxicity control for Shn3 inhibitor project, CellTiter-Glo, cherry-picked (AID 624134). The class given is functional, cell-based.

Calls of active or inactive are those of the source.

Sequence of Receptor tyrosine-protein kinase erbB-2 (P04626 whole entry): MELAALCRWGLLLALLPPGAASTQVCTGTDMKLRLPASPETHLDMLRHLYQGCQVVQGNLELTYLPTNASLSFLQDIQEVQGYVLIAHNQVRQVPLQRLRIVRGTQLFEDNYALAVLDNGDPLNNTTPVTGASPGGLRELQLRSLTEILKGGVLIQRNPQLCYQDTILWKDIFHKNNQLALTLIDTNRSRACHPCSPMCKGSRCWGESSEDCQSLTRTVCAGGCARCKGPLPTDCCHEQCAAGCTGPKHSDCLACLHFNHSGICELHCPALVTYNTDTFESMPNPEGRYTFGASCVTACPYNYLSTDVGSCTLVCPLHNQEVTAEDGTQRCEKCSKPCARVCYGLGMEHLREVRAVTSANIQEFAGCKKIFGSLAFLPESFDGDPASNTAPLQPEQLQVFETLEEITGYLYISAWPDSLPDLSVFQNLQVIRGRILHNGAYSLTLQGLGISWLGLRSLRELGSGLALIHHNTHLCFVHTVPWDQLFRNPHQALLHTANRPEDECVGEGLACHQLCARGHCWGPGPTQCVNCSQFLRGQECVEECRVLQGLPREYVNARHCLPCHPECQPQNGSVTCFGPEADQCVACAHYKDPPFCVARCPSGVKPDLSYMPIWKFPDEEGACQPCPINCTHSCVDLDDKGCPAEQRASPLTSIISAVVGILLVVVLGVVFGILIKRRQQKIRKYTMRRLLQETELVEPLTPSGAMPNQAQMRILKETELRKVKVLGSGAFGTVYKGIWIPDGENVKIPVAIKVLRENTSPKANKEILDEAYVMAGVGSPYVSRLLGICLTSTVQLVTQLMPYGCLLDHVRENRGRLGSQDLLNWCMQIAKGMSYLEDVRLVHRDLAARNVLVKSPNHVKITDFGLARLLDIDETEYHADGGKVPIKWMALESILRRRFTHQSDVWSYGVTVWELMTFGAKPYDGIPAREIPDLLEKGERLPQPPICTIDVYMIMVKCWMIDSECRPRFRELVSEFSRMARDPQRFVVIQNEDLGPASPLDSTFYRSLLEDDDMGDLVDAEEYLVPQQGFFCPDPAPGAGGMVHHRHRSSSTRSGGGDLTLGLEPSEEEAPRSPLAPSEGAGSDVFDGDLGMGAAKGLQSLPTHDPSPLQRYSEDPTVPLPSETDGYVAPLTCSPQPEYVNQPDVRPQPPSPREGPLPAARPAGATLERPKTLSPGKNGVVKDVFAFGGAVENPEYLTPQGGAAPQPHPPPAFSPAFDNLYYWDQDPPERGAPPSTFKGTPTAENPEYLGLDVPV
Sequence of Tyrosine-protein kinase ITK/TSK (Q08881 whole entry): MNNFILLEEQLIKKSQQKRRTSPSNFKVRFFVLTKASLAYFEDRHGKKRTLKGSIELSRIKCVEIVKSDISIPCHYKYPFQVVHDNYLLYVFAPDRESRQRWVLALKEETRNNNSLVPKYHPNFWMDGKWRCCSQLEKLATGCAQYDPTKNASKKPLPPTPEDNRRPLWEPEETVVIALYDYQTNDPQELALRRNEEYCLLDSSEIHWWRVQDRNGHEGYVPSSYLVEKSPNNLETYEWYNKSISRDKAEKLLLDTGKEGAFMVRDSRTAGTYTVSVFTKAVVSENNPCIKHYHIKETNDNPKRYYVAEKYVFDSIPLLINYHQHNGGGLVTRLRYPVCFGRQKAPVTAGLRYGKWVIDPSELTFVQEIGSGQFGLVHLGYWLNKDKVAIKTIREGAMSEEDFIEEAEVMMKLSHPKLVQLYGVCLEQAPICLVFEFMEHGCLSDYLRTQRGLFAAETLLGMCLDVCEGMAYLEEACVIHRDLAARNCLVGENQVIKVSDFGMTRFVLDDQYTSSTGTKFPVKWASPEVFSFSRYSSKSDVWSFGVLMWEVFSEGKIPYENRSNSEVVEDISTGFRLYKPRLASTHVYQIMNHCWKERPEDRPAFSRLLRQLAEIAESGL
Sequence of Testis-specific serine/threonine-protein kinase 2 (Q96PF2 whole entry): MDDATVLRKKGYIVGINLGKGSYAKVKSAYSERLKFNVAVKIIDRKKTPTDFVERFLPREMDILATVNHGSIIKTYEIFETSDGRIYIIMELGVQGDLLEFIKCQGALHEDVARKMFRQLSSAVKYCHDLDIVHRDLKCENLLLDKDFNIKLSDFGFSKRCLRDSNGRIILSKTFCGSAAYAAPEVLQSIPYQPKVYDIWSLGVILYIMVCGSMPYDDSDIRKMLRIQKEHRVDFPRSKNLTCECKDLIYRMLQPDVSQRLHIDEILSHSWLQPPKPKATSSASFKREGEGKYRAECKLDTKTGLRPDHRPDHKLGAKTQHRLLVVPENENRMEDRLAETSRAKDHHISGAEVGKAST

In general, Ki refers to a measure of affinity in units of concentration, obtained from inhibition or displacement. Turning to `CS(=O)(=O)N(Cc1ccc2[nH]c(=O)c3cccn3c2c1)C1CC1`, the Ki is 0.0398 µM (active) in [1]; > 1.58 µM (inactive) in [2]; 0.251 µM (active) in test [3]; 0.0316 µM (active) in test [4]; > 3.98 µM (inactive) in test [5]; > 10 µM (inactive) in test [6].

In general, EC50 refers to the midpoint of the concentration-response curve. In general, AC50 refers to the midpoint of the concentration-response curve, whichever way the signal moves. Consider `Cc1cc(NC(c2ccc(Cl)cc2)c2ccc3cccnc3c2O)no1` (stereo unspecified), for which the EC50 was 22 µM (active) in test [7], > 350 µM (not active) in the test “cells”, 15 µM (active) in the test on Streptococcus and 20.7 µM (active) in test [8]. In addition, in test [9], the AC50 was 1.27 µM (active).
